Measurements published in US12171760B2, “Use of glucocorticoid receptor modulators to potentiate checkpoint inhibitors” (Corcept Therapeutics Incorporated, priority 2016, dated 2024).

What was measured:
mouse A20 cancer cells = test: A20 tumor growth in mice, combination of CORT125281 and anti PD-1; assay type: in vivo; conditions: CORT125281 30 mg/kg orally daily in combination with mouse anti PD-1 antibody (clone RPM1-14, 10 mg/kg) i.p. twice a week; C57BL/6 mice, s.c. A20 tumors; FIG. 2
Protocol: (§1) Suspensions of mouse A20 cancer cells were injected subcutaneously into the left flank of 5-6 week old immunocompetent female mice (C57BL/6), ½ million cells per mouse. Tumors were allowed to grow until they reached a volume of 100 mm^3. Mice were then grouped into three groups, ten (10) per group. Group I was dosed with the anti-PD-1 vehicle (PBS, 10 ml/kg) i. p. twice a week and the CORT125281 vehicle p.o. (10% DMSO, 0.1% Tween 80 and 89.9% HPMC (0.5%), 10 ml/kg) daily. Group II was dosed with the mouse anti PD-1 antibody (clone RPM1-14, 10 mg/kg) i. p. twice a week. Group III was dosed with the mouse anti PD-1 antibody (clone RPM1-14, 10 mg/kg) i. p. twice a week and CORT125281 (a SGRM) (30 mg/kg) orally on a daily basis.
(§2) The longest (L) and shortest (S) diameters of the tumors were measured three times a week with electronic calipers and tumor volume was calculated using the formula for an ellipsoid sphere: S^2×L×(0.5). The tumor growth data are shown in FIG. 2, in which the mean tumor volume for each group of mice is plotted against the number of days of tumor growth since initiation of the treatment.

mouse CT26 cancer cells = test: CT26 tumor growth in mice, combination of CORT125134 or CORT125281 and anti CTLA4; assay type: in vivo; conditions: SGRM 30 mg/kg orally daily in combination with mouse anti CTLA4 antibody (clone 9D9, 10 mg/kg) i.p. twice a week; C57BL/6 mice, s.c. CT26 tumors; FIG. 3
Protocol: Suspensions of mouse CT26 cancer cells were injected subcutaneously into the left flank of 6-7 week old immunocompetent female mice (C57BL/6), ½ million cells per mouse. Tumors were allowed to grow until they reached a volume of 50-100 mm^3. Mice were then grouped into three groups, ten (10) per group. Group I was dosed with the anti-CTLA4 vehicle (PBS, 10 ml/kg) i. p. twice a week and the CORT125134 vehicle p.o. (10% DMSO, 0.1% Tween 80 and 89.9% HPMC (0.5%), 10 ml/kg) daily. Group II was dosed with the mouse anti CTLA4 antibody (clone 9D9, 10 mg/kg) i. p. twice a week. Group III was dosed with the mouse anti CTLA4 antibody (clone 9D9, 10 mg/kg) i. p. twice a week and CORT125134 (a SGRM) (30 mg/kg) orally on a daily basis. Group IV was dosed with the mouse anti CTLA4 antibody (clone 9D9, 10 mg/kg) i. p. twice a week and CORT125281 (a SGRM) (30 mg/kg) orally on a daily basis.
as §2, with “3,” for “2,”, “group” for “group of mice”

mouse MC38 cancer cells = test: MC38 tumor growth in mice, combination of CORT125134 and anti PD-1; assay type: in vivo; conditions: CORT125134 30 mg/kg orally daily in combination with mouse anti PD-1 antibody (clone RPM1-14, 10 mg/kg) i.p. twice a week; C57BL/6 mice, s.c. MC38 tumors; FIG. 1
Protocol: as §1, with “MC38” for “A20”, “1” for “½”, “reach” for “reached”, “CORT125134” for “CORT125281”, “basis. The longest (L) and shortest (S) diameters of the tumors were measured three times a week with electronic calipers and tumor volume was calculated using the formula for an ellipsoid sphere: S^2×L×(0.5). The tumor growth data are shown in FIG. 1, in which the mean tumor volume as compared to the mean pre-dosing tumor volume for each group of mice is plotted against the number of days of tumor growth since initiation of the treatment.” for “basis.”

breast cancer = test: Treating a breast cancer patient with the combination therapy (tumor load by enhanced magnetic resonance imaging); assay type: in vivo, human; conditions: CORT125134 200 mg once a day for eight weeks with pembrolizumab 3 mg/kg every 2 weeks
Protocol: A patient suffering from breast cancer is treated with pembrolizumab at a dose of 3 mg/kg every 2 weeks and CORT125134 at a dose of 200 mg once a day for eight weeks. Their tumor load is monitored using enhanced magnetic resonance imaging before, during and after the treatment.

SMILES | reducing tumor growth (mean tumor volume) (mouse A20 cancer cells) | reducing tumor growth (mean tumor volume) (mouse CT26 cancer cells) | reducing tumor growth (mean tumor volume as compared to the mean pre-dosing tumor volume) (mouse MC38 cancer cells) | reduction of the size of the tumor at the end of the treatment period (breast cancer)
Cn1ncc(S(=O)(=O)N2CC[C@H]3Cc4c(cnn4-c4ccc(F)cc4)C[C@]3(C(=O)c3cc(C(F)(F)F)ccn3)C2)n1 [CORT125281, ((4aR,8aS)-1-(4-fluorophenyl)-6-((2-methyl-2H-1,2,3-triazol-4-yl)sulfonyl)-4,4a,5,6,7,8,8a,9-octahydro-1H-pyrazolo[3,4-g]isoquinolin-4a-yl)(4-(trifluoromethyl)pyridin-2-yl)methanone] | superior to both the anti PD-1 group and the vehicle group in reducing tumor growth | superior to both the anti CTLA4 group and the vehicle group in reducing tumor growth | – | –
Cn1cc(S(=O)(=O)N2CCC3=Cc4c(cnn4-c4ccc(F)cc4)C[C@]3(C(=O)c3cc(C(F)(F)F)ccn3)C2)cn1 [CORT125134, (R)-(1-(4-fluorophenyl)-6-((1-methyl-1H-pyrazol-4-yl)sulfonyl)-4,4a,5,6,7,8-hexahydro-1H-pyrazolo[3,4-g]isoquinolin-4a-yl)(4-(trifluoromethyl)pyridin-2-yl)methanone] | – | superior to both the anti CTLA4 group and the vehicle group in reducing tumor growth | superior to both the anti PD-1 group and the vehicle group in reducing tumor growth | more than 20%
